Source: US8916702B2 (priority 2012, dated 2014)

tested on: HCV pseudoparticles (genotype 1a HCV E1 and E2 envelope, H77C isolate); experiment: microbe, parasite or virus in culture; format: cell-based; settings: Hepatitis C virus, Huh-7, 48 h, HCV pseudoparticle infection of Huh7 cells, luciferase 2 days after infection; average of duplicates

| SMILES | EC50 |
| --- | --- |
| C[C@H]1[C@H]2C[C@@H](C[C@H]1NC(=O)C(=O)NCC[C@H](NC(=O)c1ccc(Nc3nc(NC4(c5ccc(Cl)cc5)CC4)nc(OCC(F)(F)F)n3)cc1)C(=O)O)C2(C)C [Compound 1130] | 0.12 nM |
| COC(=O)[C@H](CCNC(=O)C(=O)Nc1ccccn1)NC(=O)c1ccc(Nc2nc(NC3(c4ccc(Cl)cc4)CC3)nc(OCC(F)(F)F)n2)cc1 [Compound 1237] | 0.77 nM |

same assay, conditions: Hepatitis C virus, Huh-7, 48 h, HCV pseudoparticles (genotype 1a, H77C) in Huh7 cells; average of duplicate; luciferase 2 days after infection

| SMILES | EC50 |
| --- | --- |
| COC(=O)[C@H](CNC(=O)C(=O)Nc1ccc(-c2cc[nH]n2)cc1)NC(=O)c1ccc(Nc2nc(NC3(c4ccc(Cl)cc4)CC3)nc(OCC(F)(F)F)n2)cc1 [Compound 3193] | 1.03 nM |
| Cc1ccc(NC(=O)C(=O)NCCCNC(=O)c2ccc(Nc3nc(NC4(c5ccc(Cl)cc5)CC4)nc(OCC(F)(F)F)n3)cc2)cc1 [Compound 3358] | 0.034 nM |
| Cc1cc(NC(=O)C(=O)NCC(C)CNC(=O)c2ccc(Nc3nc(NC4(c5ccc(Cl)cc5)CC4)nc(OCC(F)(F)F)n3)cc2)no1 (centres unmarked) [Compound 3334] | 0.062 nM |

same assay, conditions: Hepatitis C virus, Huh-7, 48 h, HCV pseudoparticles, Huh7 cells, luciferase 2 days after infection; average of duplicates

| SMILES | EC50 |
| --- | --- |
| COC(=O)[C@H](CNC(=O)C(=O)Nc1cccc(CN2CCCC2)c1)NC(=O)c1ccc(Nc2nc(NC3(c4ccc(Cl)cc4)CC3)nc(OCC(F)(F)F)n2)cc1 [Compound 3723] | 1.34 nM |

same assay, conditions: Hepatitis C virus, Huh-7, 48 h, read-out: Activity (EC50 class), HCV pseudoparticle infection of Huh7 cells, luciferase 2 days after infection; EC50 expressed as class A/B

| SMILES | EC50 |
| --- | --- |
| COC(=O)[C@H](CCNC(=O)C(=O)N[C@@H]1C[C@@H]2CC[C@H]1C2)NC(=O)c1ccc(Nc2nc(NC3(c4ccc(Cl)cc4)CC3)nc(OCC(F)(F)F)n2)cc1 [Compound 1102] | 0.01 to 10 nM |
| C[C@H]1[C@H]2C[C@@H](C[C@H]1NC(=O)C(=O)NCC[C@H](NC(=O)c1ccc(Nc3nc(NC4(c5ccc(Cl)cc5)CC4)nc(OCC(F)(F)F)n3)cc1)C(=O)O)C2(C)C [Compound 1130] | 0.01 to 10 nM |
| COC(=O)[C@H](CCNC(=O)C(=O)Nc1ccccc1F)NC(=O)c1ccc(Nc2nc(NC3(c4ccc(Cl)cc4)CC3)nc(OCC(F)(F)F)n2)cc1 [Compound 1231] | 0.01 to 10 nM |
| CC1(C)CC(NC(=O)C(=O)NCC[C@H](NC(=O)c2ccc(Nc3nc(NC4(c5ccc(Cl)cc5)CC4)nc(OCC(F)(F)F)n3)cc2)C(=O)O)CC(C)(C)C1 [Compound 1115] | 0.01 to 10 nM |
| COC(=O)[C@H](CNC(=O)C(=O)NC1CC(C)CC(C)(C)C1)NC(=O)c1ccc(Nc2nc(NC3(c4ccc(Cl)cc4)CC3)nc(OCC(F)(F)F)n2)cc1 (some centres unmarked) [Compound 1060] | 0.01 to 10 nM |
| COC(=O)[C@H](CCNC(=O)C(=O)Nc1ccccn1)NC(=O)c1ccc(Nc2nc(NC3(c4ccc(Cl)cc4)CC3)nc(OCC(F)(F)F)n2)cc1 [Compound 1237] | 0.01 to 10 nM |
| COC(=O)[C@H](CCNC(=O)C(=O)Nc1cn[nH]c1)NC(=O)c1ccc(Nc2nc(NC3(c4ccc(Cl)cc4)CC3)nc(OCC(F)(F)F)n2)cc1 [Compound 1224] | 0.01 to 10 nM |
| O=C(NCC[C@H](NC(=O)c1ccc(Nc2nc(NC3(c4ccc(Cl)cc4)CC3)nc(OCC(F)(F)F)n2)cc1)C(=O)O)C(=O)NCC1(CO)CC1 [Compound 1424] | 0.01 to 10 nM |
| O=C(NC[C@H](NC(=O)c1ccc(Nc2nc(NC3(c4ccc(Cl)cc4)CC3)nc(OCC(F)(F)F)n2)cc1)C(=O)O)C(=O)Nc1ccccc1F [Compound 1361] | 0.01 to 10 nM |
| COC(=O)[C@H](CNC(=O)C(=O)NC1CCCCC1O)NC(=O)c1ccc(Nc2nc(NC3(c4ccc(Cl)cc4)CC3)nc(OCC(F)(F)F)n2)cc1 (some centres unmarked) [Compound 1051] | 0.01 to 10 nM |
| CCC1CCC(NC(=O)C(=O)NCC[C@H](NC(=O)c2ccc(Nc3nc(NC4(c5ccc(Cl)cc5)CC4)nc(OCC(F)(F)F)n3)cc2)C(=O)O)CC1 (some centres unmarked) [Compound 1121] | 0.01 to 10 nM |
| O=C(NCc1ccc(F)c(F)c1)C(=O)NC[C@H](NC(=O)c1ccc(Nc2nc(NC3(c4ccc(Cl)cc4)CC3)nc(OCC(F)(F)F)n2)cc1)C(=O)O [Compound 1171] | 0.01 to 10 nM |
| COCC1(CNC(=O)C(=O)NCC[C@@H](NC(=O)c2ccc(Nc3nc(NC4(c5ccc(Cl)cc5)CC4)nc(OCC(F)(F)F)n3)cc2)C(=O)O)CC1 [Compound 1419] | 0.01 to 10 nM |
| Cc1cccc(C2CC2CNC(=O)C(=O)NCC[C@H](NC(=O)c2ccc(Nc3nc(NC4(c5ccc(Cl)cc5)CC4)nc(OCC(F)(F)F)n3)cc2)C(=O)O)c1 (some centres unmarked) [Compound 1434] | 0.01 to 10 nM |
| COC(=O)[C@H](CNC(=O)C(=O)N[C@H]1C[C@H]1c1ccccc1)NC(=O)c1ccc(Nc2nc(NC3(c4ccc(Cl)cc4)CC3)nc(OCC(F)(F)F)n2)cc1 [Compound 1294] | 0.01 to 10 nM |
| COC(=O)[C@H](CNC(=O)C(=O)NCCc1cccc(F)c1)NC(=O)c1ccc(Nc2nc(NC3(c4ccc(Cl)cc4)CC3)nc(OCC(F)(F)F)n2)cc1 [Compound 1289] | 0.01 to 10 nM |
| COC(=O)[C@@H](CCNC(=O)C(=O)NCC1(CN2CCN(C)CC2)CC1)NC(=O)c1ccc(Nc2nc(NC3(c4ccc(Cl)cc4)CC3)nc(OCC(F)(F)F)n2)cc1 [Compound 1388] | 0.01 to 10 nM |
| CC1CCCCC1NC(=O)C(=O)NCC[C@H](NC(=O)c1ccc(Nc2nc(NC3(c4ccc(Cl)cc4)CC3)nc(OCC(F)(F)F)n2)cc1)C(=O)O (some centres unmarked) [Compound 1124] | 0.01 to 10 nM |
| CCC(CC)CNC(=O)C(=O)NCC[C@H](NC(=O)c1ccc(Nc2nc(NC3(c4ccc(Cl)cc4)CC3)nc(OCC(F)(F)F)n2)cc1)C(=O)OC [Compound 1202] | 0.01 to 10 nM |

same assay, conditions: Hepatitis C virus, Huh-7, 48 h, read-out: Activity (EC50 class), HCV pseudoparticles, Huh7 cells, luciferase 2 days after infection; average of duplicates

| SMILES | EC50 |
| --- | --- |
| O=C(NC[C@H](NC(=O)c1ccc(Nc2nc(NC3(c4ccc(Cl)cc4)CC3)nc(OCC(F)(F)F)n2)cc1)C(=O)Cl)C(=O)Nc1ccc(OCCN2CCCCC2)nc1 [Compound 3791] | 0.01 to 10 nM |
| NC(=O)c1cccc(NC(=O)C(=O)NCC[C@H](NC(=O)c2ccc(Nc3nc(NC4(c5ccc(Cl)cc5)CC4)nc(OCC(F)(F)F)n3)cc2)C(=O)O)c1 [Compound 3615] | 0.01 to 10 nM |
| COC(=O)[C@H](CNC(=O)C(=O)Nc1cccc(CN2CCCC2)c1)NC(=O)c1ccc(Nc2nc(NC3(c4ccc(Cl)cc4)CC3)nc(OCC(F)(F)F)n2)cc1 [Compound 3723] | 0.01 to 10 nM |
| O=C(NC[C@H](NC(=O)c1ccc(Nc2nc(NC3(c4ccc(Cl)cc4)CC3)nc(OCC(F)(F)F)n2)cc1)C(=O)O)C(=O)Nc1ccc(O)nc1 [Compound 3777] | 0.01 to 10 nM |
| CC(C)(C)c1ccc(Oc2ccc(NC(=O)C(=O)NC[C@H](NC(=O)c3ccc(Nc4nc(NC5(c6ccc(Cl)cc6)CC5)nc(OCC(F)(F)F)n4)cc3)C(=O)O)cn2)cc1 [Compound 3754] | 0.01 to 10 nM |
| CC(C)(C)c1cccc(NC(=O)C(=O)NCC[C@H](NC(=O)c2ccc(Nc3nc(NC4(c5ccc(Cl)cc5)CC4)nc(OCC(F)(F)F)n3)cc2)C(=O)O)c1 [Compound 3629] | 0.01 to 10 nM |
| O=C(NCC[C@H](NC(=O)c1ccc(Nc2nc(NC3(c4ccc(Cl)cc4)CC3)nc(OCC(F)(F)F)n2)cc1)C(=O)O)C(=O)Nc1cccc(Cc2ccccn2)c1 [Compound 3650] | 0.01 to 10 nM |
| COC(=O)[C@H](CNC(=O)C(=O)Nc1cccc(-c2nncn2C)c1)NC(=O)c1ccc(Nc2nc(NC3(c4ccc(Cl)cc4)CC3)nc(OCC(F)(F)F)n2)cc1 [Compound 3719] | 0.01 to 10 nM |

same assay, conditions: Hepatitis C virus, Huh-7, read-out: Activity (EC50 class), HCV pseudoparticles (genotype 1a, H77C) in Huh7 cells; EC50 expressed as class A/B

| SMILES | EC50 |
| --- | --- |
| CC(C)(CNC(=O)C(=O)Nc1nc2ccccc2s1)CNC(=O)c1ccc(Nc2nc(NC3(c4ccc(Cl)cc4)CC3)nc(OCC(F)(F)F)n2)cc1 [Compound 3376] | 0.01 to 10 nM |
| CC(C)(CNC(=O)C(=O)Nc1ccon1)CNC(=O)c1ccc(Nc2nc(NC3(c4ccc(Cl)cc4)CC3)nc(OCC(F)(F)F)n2)cc1 [Compound 3040] | 0.01 to 10 nM |
| Cc1cc(C)n(-c2ccc(NC(=O)C(=O)NC/C(=N/C(=O)c3ccc(Nc4nc(NC5(c6ccc(Cl)cc6)CC5)nc(OCC(F)(F)F)n4)cc3)C(=O)O)cc2)n1 [Compound 3174] | 0.01 to 10 nM |
| COc1cccc(NC(=O)C(=O)NCC(C)(C)CNC(=O)c2ccc(Nc3nc(NC4(c5ccc(Cl)cc5)CC4)nc(OCC(F)(F)F)n3)cc2)c1 [Compound 3008] | 0.01 to 10 nM |
| NC(=O)C(=O)N(CCO)CCCNC(=O)c1ccc(Nc2nc(NC3(c4ccc(Cl)cc4)CC3)nc(OCC(F)(F)F)n2)cc1 [Compound 3498] | 0.01 to 10 nM |
| NC(=O)NCc1ccc(NC(=O)C(=O)NCCC(NC(=O)c2ccc(Nc3nc(NC4(c5ccc(Cl)cc5)CC4)nc(OCC(F)(F)F)n3)cc2)C(=O)O)cc1 (centres unmarked) [Compound 3535] | 0.01 to 10 nM |
| O=C(Nc1ccc(F)cc1F)C(=O)N1CCCC(CNC(=O)c2ccc(Nc3nc(NC4(c5ccc(Cl)cc5)CC4)nc(OCC(F)(F)F)n3)cc2)C1 (centres unmarked) [Compound 3484] | 0.01 to 10 nM |
| O=C(NC1CCCCC1)C(=O)N1CCCC(CNC(=O)c2ccc(Nc3nc(NC4(c5ccc(Cl)cc5)CC4)nc(OCC(F)(F)F)n3)cc2)C1 (centres unmarked) [Compound 3489] | 0.01 to 10 nM |
| COC(=O)[C@H](CNC(=O)C(=O)Nc1ccc(-c2ncco2)cc1)NC(=O)c1ccc(Nc2nc(NC3(c4ccc(Cl)cc4)CC3)nc(OCC(F)(F)F)n2)cc1 [Compound 3209] | 0.01 to 10 nM |
| CC1CN(c2ccc(NC(=O)C(=O)NC/C(=N/C(=O)c3ccc(Nc4nc(NC5(c6ccc(Cl)cc6)CC5)nc(OCC(F)(F)F)n4)cc3)C(=O)O)cc2)CC(C)N1 (centres unmarked) [Compound 3160] | 0.01 to 10 nM |
| CC(C)(CNC(=O)C(=O)Nc1ccc(Cl)cc1C(N)=O)CNC(=O)c1ccc(Nc2nc(NC3(c4ccc(Cl)cc4)CC3)nc(OCC(F)(F)F)n2)cc1 [Compound 3110] | 0.01 to 10 nM |
| COC(=O)[C@H](CNC(=O)C(=O)Nc1ccc(-c2cc[nH]n2)cc1)NC(=O)c1ccc(Nc2nc(NC3(c4ccc(Cl)cc4)CC3)nc(OCC(F)(F)F)n2)cc1 [Compound 3193] | 0.01 to 10 nM |
| Cc1ccc(NC(=O)C(=O)NCCCNC(=O)c2ccc(Nc3nc(NC4(c5ccc(Cl)cc5)CC4)nc(OCC(F)(F)F)n3)cc2)cc1 [Compound 3358] | 0.01 to 10 nM |
| Cc1ccc(NC(=O)C(=O)NCC(C)(C)CNC(=O)c2ccc(Nc3nc(NC4(c5ccc(Cl)cc5)CC4)nc(OCC(F)(F)F)n3)cc2)cc1F [Compound 3044] | 0.01 to 10 nM |
| CCOCCOc1ccc(NC(=O)C(=O)NC[C@H](NC(=O)c2ccc(Nc3nc(NC4(c5ccc(Cl)cc5)CC4)nc(OCC(F)(F)F)n3)cc2)C(=O)O)cc1 [Compound 3277] | 0.01 to 10 nM |
| Cc1cc(NC(=O)C(=O)NCC(C)CNC(=O)c2ccc(Nc3nc(NC4(c5ccc(Cl)cc5)CC4)nc(OCC(F)(F)F)n3)cc2)no1 (centres unmarked) [Compound 3334] | 0.01 to 10 nM |
| Cc1cccc(CNC(=O)C(=O)NCC(C)(C)CNC(=O)c2ccc(Nc3nc(NC4(c5ccc(Cl)cc5)CC4)nc(OCC(F)(F)F)n3)cc2)c1 [Compound 3042] | 0.01 to 10 nM |
| COC(=O)[C@H](CNC(=O)C(=O)Nc1ccc(-n2cncn2)cc1)NC(=O)c1ccc(Nc2nc(NC3(c4ccc(Cl)cc4)CC3)nc(OCC(F)(F)F)n2)cc1 [Compound 3101] | 0.01 to 10 nM |
| CC(C)(CNC(=O)C(=O)NCc1ccc(C(=O)c2ccccc2)cc1)CNC(=O)c1ccc(Nc2nc(NC3(c4ccc(Cl)cc4)CC3)nc(OCC(F)(F)F)n2)cc1 [Compound 3404] | 0.01 to 10 nM |
| O=C(NCC[C@H](NC(=O)c1ccc(Nc2nc(NC3(c4ccc(Cl)cc4)CC3)nc(OCC(F)(F)F)n2)cc1)C(=O)O)C(=O)Nc1ccc(N2CCN(Cc3ccccc3)CC2)cc1 [Compound 3232] | 0.01 to 10 nM |
